Consider 29 molecules from patent US7468375B2 (Pfizer Inc., priority 2004, dated 2008).

Read-outs that look alike come from different tables or passages of the source.

The test system of test [1] is RF strain of HIV-1 in CEM-SS cells. Kind of test: HIV-1 cell protection assay (XTT dye reduction). It is filed as cell-based. The method in brief: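 CEM-SS cells infected with HIV-1 RF (moi 0.025–0.819) or mock-infected, 2×10^4 cells/well with half-log compound dilutions for six days. Viability by XTT/PMS reduction (4 h), absorbance 450 nm, as % of uninfected untreated cells. Therapeutic index = CC50/EC50.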
For orientation: Tetrazolium dyes change colour on reduction, which living cells bring about.

Test [2] concerns the target T1, Full-length wild type HIV-1 integrase (SF1) (Human immunodeficiency virus type 1 group M subtype B, UniProt P04585).
T1 construct: made in house; host or cells: E. coli BL21 (DE3)
Kind of test: Integrase strand-transfer scintillation proximity assay. It is filed as biochemical. Conditions: 50 min at 37° C., 246 nM integrase, 50 nM host DNA. The essentials:
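Recombinant full-length wild-type HIV-1 integrase (aa 1-288), E. coli-expressed, tested on biotinylated pre-processed U5 LTR viral ds-DNA with CA overhang bound to streptavidin SPA beads. [3H]-thymidine-labelled host ds-DNA serves as target; strand transfer read by scintillation proximity. A 3′ di-deoxy viral DNA control checks non-specific binding.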

Setting [3] is: Human immunodeficiency virus 1, CEM-SS, 144 h, HIV-1 RF, CEM-SS cells, XTT dye reduction, six days, read-out: EC50.
[4] abbreviates: strand transfer, read-out: IC50.
The mark [5] stands for this setting: Human immunodeficiency virus 1, CEM-SS, 144 h.

For the molecule `C[C@@H](NCc1cn(Cc2ccc(F)cc2F)c2cnc(C(=O)NO)cc12)C1CCCCC1` [Example 76, 3-({[(1R)-1-Cyclohexylethyl]amino}methyl)-1-(2,4-difluorobenzyl)-N-hydroxy-1H-pyrrolo[2,3-c]pyridine-5-carboxamide], in test [1] (setting [3]), the EC50 (as a rule, the concentration at which the effect is half-maximal) is 91 nM. Also, in test [2] (setting [4]), the half-inhibitory concentration (IC50) (in general, the concentration needed to halve the response being measured) turned out to be 402 nM.

Regarding `CCO/C=C/c1c(C(=O)NO)ncc2c1ccn2Cc1ccc(F)cc1` [Example 38, 4-[(E)-2-Ethoxyvinyl]-1-(4-fluorobenzyl)-N-hydroxy-1H-pyrrolo[2,3-c]pyridine-5-carboxamide], the concentration giving a half-maximal response (EC50) in test [1] (setting [3]) turned out to be 12 nM. In test [2] (setting [4]), the IC50 was determined as 145 nM.

For the molecule `NC(=O)CNCc1cn(Cc2ccc(F)cc2F)c2cnc(C(=O)NO)cc12` [Example 10, 3-{[(2-Amino-2-oxoethyl)amino]methyl}-1-(2,4-difluorobenzyl)-N-hydroxy-1H-pyrrolo[2,3-c]pyridine-5-carboxamide], the concentration giving a half-maximal response (EC50) in test [1] (setting [3]) is 18 nM. The half-maximal inhibitory concentration (IC50) in test [2] (setting [4]) turned out to be 84 nM.

In the case of `CN(O)C(=O)c1cc2ncn(Cc3ccc(F)cc3)c2cn1` [Example 23, 3-(4-Fluorobenzyl)-N-hydroxy-N-methyl-3-H-imidazo[4,5-c]pyridine-6-carboxamide], in test [1] (setting [3]), the EC50 stood at 780 nM. For the same molecule, the half-maximal inhibitory concentration (IC50) in test [2] (setting [4]) was determined as 1300 nM.

In the case of `COc1c(C(=O)N(C)O)ncc2c1ccn2Cc1ccc(F)cc1` [Example 44, 1-(4-Fluorobenzyl)-N-hydroxy-4-methoxy-N-methyl-1H-pyrrolo[2,3-c]pyridine-5-carboxamide], in test [1] (setting [3]), the EC50 was found to be 1200 nM. The IC50 in test [2] (setting [4]) is 2250 nM.

Take `O=C1CN(Cc2cn(Cc3ccc(F)cc3)c3cnc(C(=O)NOCc4ccccc4)cc23)CCN1` [Example 102, N-(Benzyloxy)-1-(4-fluorobenzyl)-3-[(3-oxopiperazin-1-yl)methyl]-1H-pyrrolo[2,3-c]pyridine-5-carboxamide]: the EC50 in test [1] (setting [3]) was 33 nM. Further, the IC50 in test [2] (setting [4]) turned out to be 810 nM.

As for `O=C(NO)c1cc2c(cn1)c(Cc1ccc(F)cc1)cn2Cc1ccc(F)cc1` [Example 32, 1,3-Bis(4-fluorobenzyl)-N-hydroxy-1H-pyrrolo[3,2-c]pyridine-6-carboxamide], in test [1] (setting [3]), the EC50 was 25 nM. Also, in test [2] (setting [4]), the IC50 is 215 nM.

Take `CN(O)C(=O)c1cc2c(COCCN3CCCC3=O)cn(Cc3ccc(F)cc3)c2cn1` [Example 117, 1-(4-Fluorobenzyl)-N-hydroxy-N-methyl-3-{[2-(2-oxopyrrolidin-1-yl)ethoxy]methyl}-1H-pyrrolo[2,3-c]pyridine-5-carboxamide]: the EC50 in test [1] (setting [3]) came to 401 nM. Besides, the half-maximal inhibitory concentration (IC50) in test [2] (setting [4]) was determined as 200 nM.

For the molecule `CN(O)C(=O)c1cc2c(COC[C@@H]3COC(C)(C)O3)cn(Cc3ccc(F)cc3)c2cn1` [Example 110, 3-({[(4R)-2,2-Dimethyl-1,3-dioxolan-4-yl]methoxy}methyl)-1-(4-fluorobenzyl)-N-hydroxy-N-methyl-1H-pyrrolo[2,3-c]pyridine-5-carboxamide], the EC50 in test [1] (setting [5]) is 341 nM. In addition, the half-inhibitory concentration (IC50) in test [2] (setting [4]) was found to be 14 nM.

Regarding `O=C(NO)c1cc2c(CNC3CC3c3ccccc3)cn(Cc3ccc(F)cc3F)c2cn1` (racemic) [Example 75, rac-1-(2,4-Difluorobenzyl)-N-hydroxy-3-({[(1S,2R)-2-phenylcyclopropyl]amino}methyl)-1H-pyrrolo[2,3-c]pyridine-5-carboxamide], the EC50 in test [1] (setting [3]) amounted to 14 nM. Also, the IC50 in test [2] (setting [4]) amounted to 382 nM.

Take `O=C(NO)c1cc2c(CN[C@H](CO)Cc3c[nH]c4ccccc34)cn(Cc3ccc(F)cc3F)c2cn1` [Example 77, 1-(2,4-Difluorobenzyl)-N-hydroxy-3-({[(1S)-2-hydroxy-1-(1H-indol-3-ylmethyl)ethyl]amino}methyl)-1H-pyrrolo[2,3-c]pyridine-5-carboxamide]: the 50% effective concentration (EC50) in test [1] (setting [3]) turned out to be 360 nM. Besides, in test [2] (setting [4]), the IC50 came to 483 nM.

In test [1] (setting [5]), `COCCOCc1cn(Cc2ccc(F)cc2)c2cnc(C(=O)N(C)O)cc12` [Example 108, 1-(4-Fluorobenzyl)-N-hydroxy-3-[(2-methoxyethoxy)methyl]-N-methyl-1H-pyrrolo[2,3-c]pyridine-5-carboxamide] displayed an EC50 of 334 nM. Moreover, the 50% inhibitory concentration (IC50) in test [2] (setting [4]) amounted to 21.2 nM.

In the case of `CN(O)C(=O)c1cc2c(CN3CC[C@@H]4C(=O)NC[C@@H]4C3)cn(Cc3ccc(F)cc3F)c2cn1` (racemic) [Example 18, rac 1-(2,4-difluorobenzyl)-N-hydroxy-N-methyl-3-{[(3aR*,7aS*)-1-oxooctahydro-5H-pyrrolo[3,4-c]pyridin-5-yl]methyl}-1H-pyrrolo[2,3-c]pyridine-5-carboxamide], the concentration giving a half-maximal response (EC50) in test [1] (setting [3]) was 49 nM. Also, in test [2] (setting [4]), the IC50 was 470 nM.

On to `O=C(NO)c1cc2c(CNCCO)cn(Cc3ccc(F)cc3F)c2cn1` [Example 80, 1-(2,4-Difluorobenzyl)-N-hydroxy-3-{[(2-hydroxyethyl)amino]methyl}-1H-pyrrolo[2,3-c]pyridine-5-carboxamide], for which, in test [1] (HIV-1 RF, CEM-SS cells, XTT dye reduction, six days, read-out: EC50), the EC50 was determined as 10 nM. In test [2] (setting [4]), the IC50 was determined as 530 nM.

In the case of `CN1CCN(CCCNCc2cn(Cc3ccc(F)cc3F)c3cnc(C(=O)NO)cc23)CC1` [Example 52, 1-(2,4-Difluorobenzyl)-N-hydroxy-3-({[3-(4-methylpiperazin-1-yl)propyl]amino}methyl)-1H-pyrrolo[2,3-c]pyridine-5-carboxamide], the EC50 in test [1] (setting [3]) was found to be 260 nM. In test [2] (setting [4]), the IC50 stood at 781 nM.

Turning to `Cc1cccc(CNCc2cn(Cc3ccc(F)cc3F)c3cnc(C(=O)NO)cc23)c1` [Example 79, 1-(2,4-Difluorobenzyl)-N-hydroxy-3-{[(3-methylbenzyl)amino]methyl}-1H-pyrrolo[2,3-c]pyridine-5-carboxamide], the EC50 in test [1] (setting [3]) is 20 nM. Further, the IC50 in test [2] (setting [4]) came out at 243 nM.

As for `COCc1c(C(=O)NOC)ncc2c1ccn2Cc1ccc(F)cc1F` [Example 20], the EC50 in test [1] (setting [3]) is 82 nM. The same molecule yielded an IC50 in test [2] (IC50, strand transfer) of 1540 nM.

Consider `O=C(c1cc2ccn(Cc3ccc(F)cc3)c2cn1)N(O)CCCO` [Example 30, 1-(4-Fluorobenzyl)-N-hydroxy-N-(3-hydroxypropyl)-1H-pyrrolo[2,3-c]pyridine-5-carboxamide], for which the half-maximal effective concentration (EC50) in test [1] (setting [3]) amounted to 300 nM. Further, the IC50 in test [2] (setting [4]) worked out at 804 nM.

Consider `O=C(NO)c1cc2c(CNCC34CCCN3CCC4)cn(Cc3ccc(F)cc3F)c2cn1` [Example 92, 1-(2,4-Difluorobenzyl)-N-hydroxy-3-{[(tetrahydro-1H-pyrrolizin-7a(5H)-ylmethyl)amino]methyl}-1H-pyrrolo[2,3-c]pyridine-5-carboxamide], for which the EC50 in test [1] (setting [3]) turned out to be 70 nM. Also, the IC50 in test [2] (setting [4]) was found to be 425 nM.

Take `CN(O)C(=O)c1cc2cnn(Cc3ccc(F)cc3)c2cn1` [Example 36, 1-(4-Fluorobenzyl)-N-hydroxy-N-methyl-1H-pyrazolo[3,4-c]pyridine-5-carboxamide]: the EC50 in test [1] (setting [3]) amounted to 390 nM. Besides, in test [2] (setting [4]), the IC50 was 811 nM.

Consider `CC(NCc1cn(Cc2ccc(F)cc2F)c2cnc(C(=O)NO)cc12)c1ccccc1` (stereo not shown) [Example 71, 1-(2,4-Difluorobenzyl)-N-hydroxy-3-{[(1-phenylethyl)amino]methyl}-1H-pyrrolo[2,3-c]pyridine-5-carboxamide], for which, in test [1] (setting [3]), the EC50 is 44 nM. Further, in test [2] (setting [4]), the IC50 was 409 nM.

Consider `O=C(NO)c1cc2c(CN3CCCCC3)cn(Cc3ccc(F)cc3F)c2cn1` [Example 6, 1-(2,4-difluorobenzyl)-N-hydroxy-3-(piperidin-1-ylmethyl)-1H-pyrrolo[2,3-c]pyridine-5-carboxamide], for which the half-maximal effective concentration (EC50) in test [1] (setting [3]) turned out to be 5.2 nM. In test [2] (setting [4]), the IC50 was determined as 108 nM.

As to `CN(C)CCCNCc1cn(Cc2ccc(F)cc2F)c2cnc(C(=O)NO)cc12` [Example 4], the concentration giving a half-maximal response (EC50) in test [1] (setting [3]) came to 85 nM. Moreover, in test [2] (setting [4]), the half-inhibitory concentration (IC50) came to 343 nM.

On to `O=C(NO)c1cc2c(CNCCN3CCCC3)cn(Cc3ccc(F)cc3F)c2cn1` [Example 57, 1-(2,4-Difluorobenzyl)-N-hydroxy-3-{[(2-pyrrolidin-1-ylethyl)amino]methyl}-1H-pyrrolo[2,3-c]pyridine-5-carboxamide], for which, in test [1] (setting [3]), the 50% effective concentration (EC50) worked out at 24 nM. The IC50 in test [2] (setting [4]) was 542 nM.

As to `C[C@@H](NCc1cn(Cc2ccc(F)cc2F)c2cnc(C(=O)NO)cc12)[C@@H](O)c1ccccc1` (stereo in doubt) [Example 86, 1-(2,4-Difluorobenzyl)-N-hydroxy-3-{[(2-hydroxy-1-methyl-2-phenylethyl)amino]methyl}-1H-pyrrolo[2,3-c]pyridine-5-carboxamide], the EC50 in test [1] (setting [3]) was determined as 11 nM. Moreover, in test [2] (setting [4]), the concentration for half-maximal inhibition (IC50) worked out at 314 nM.

Turning to `CC(C)OCCCNCc1cn(Cc2ccc(F)cc2F)c2cnc(C(=O)NO)cc12` [Example 83, 1-(2,4-Difluorobenzyl)-N-hydroxy-3-H{[(3-isopropoxypropyl)amino]methyl}-1H-pyrrolo[2,3-c]pyridine-5-carboxamide], in test [1] (setting [3]), the EC50 came out at 60 nM. In test [2] (setting [4]), the IC50 turned out to be 952 nM.

On to `CN1CCN(Cc2cn(Cc3ccc(F)cc3F)c3cnc(C(=O)N(C)O)cc23)CC1` [Example 13], for which, in test [1] (setting [3]), the half-maximal effective concentration (EC50) was 220 nM. In test [2] (IC50, strand transfer), this molecule gave a concentration for half-maximal inhibition (IC50) of 695 nM.

In the case of `O=C(NO)c1cc2c(CNc3cccnc3)cn(Cc3ccc(F)cc3F)c2cn1` [Example 11, 1-(2,4-Difluorobenzyl)-N-hydroxy-3-[(pyridin-3-ylamino)methyl]-1 pyrrolo[2,3-c]pyridine-5-carboxamide], the EC50 in test [1] (setting [3]) was determined as 15 nM. In addition, in test [2] (setting [4]), the IC50 was 37 nM.

For `O=C(NO)c1cc2c(CNCc3ccccn3)cn(Cc3ccc(F)cc3F)c2cn1` [Example 55, 1-(2,4-Difluorobenzyl)-N-hydroxy-3-{[(pyridin-2-ylmethyl)amino]methyl}-1H-pyrrolo[2,3-c]pyridine-5-carboxamide], the half-maximal effective concentration (EC50) in test [1] (setting [3]) is 20 nM. Besides, the half-maximal inhibitory concentration (IC50) in test [2] (setting [4]) was found to be 216 nM.
